Assays:
[1] = system: SIRT1; test: SIRT1 expression recovering effect in gingival fibroblasts treated with cigarette smoke condensate (PCR); assay type: cell-based, human; conditions: cigarette smoke condensate 100 μg/mL, syringaresinol 50 or 100 μg/mL, 2 days, FIG. 2
Experimental: Experiment was conducted to evaluate whether syringaresinol can recover SIRT1 expression that has been decreased due to smoking in gingival fibroblasts.
Gingival fibroblasts were obtained from tissue biopsies of patients having healthy gingiva. The tissue biopsy was put in a 15-mL test tube holding Dulbecco's modified Eagle's medium (DMEM, Gibco Co., USA) and blood and impurities were removed by washing 3 times. Then, the tissue biopsy was transferred onto a 100-mm tissue culture dish holding DMEM containing 10% fetal bovine serum (Gibco Co., USA) and 1% antibiotics (penicillin G 10,000 units/mL, amphotericin B 25 μg/mL, Gibco Co., USA) and finely cut to 1 mm^2 using a No. 15 blade. Then, 5-6 pieces were uniformly distributed on a 60-mm culture dish. After incubation for about 30 minutes in a 5% CO2 incubator at 37° C. and 100% humidity such that the tissue was uniformly attached on the bottom of the culture dish, 3 mL of DMEM containing 10% fetal bovine serum and 1% antibiotics was added. The culture medium was exchanged with 2-3 day intervals until a single layer of cells was formed. […]
The gingival fibroblasts subcultured 5-6 times were seeded onto a 24-well plate, with 1×10^4 cells per well. […] The expression pattern of the SIRT1 and GAPDH genes was monitored using the synthesized cDNA and predesigned primers and probes (Applied Biosystems; SIRT1, Hs01009006_m1; GAPDH, Hs99999905_m1). […]

[2] = system: SIRT1; test: SIRT1 expression promoting effect in aged human retinal epithelial cells (western blotting); assay type: cell-based; conditions: aged ARPE-19 cells (5 PDL to 15 PDL), FIG. 14
Experimental: The SIRT1 gene expression promoting effect of syringaresinol in aged human retinal epithelial cells was evaluated as follows. Human retinal […] cell line ARPE-19 was purchased from ATCC (Manassa, Va., USA) and cultured in a 5% CO2 incubator using DMEM (Gibco BRL, Grand Island, N.Y., USA) containing 10% bovine serum, 1% penicillin/streptomycin, amphotericin B and an antifungal agent until 70% confluency. […] The population doubling level (PDL) was calculated according to the following equation for each generation until the cell growth was stopped. The PDL value is higher in aged cells. PDL=(Log10Y−Log10X)/Log102 Y: number of cells at the end of the generation X: number of cells at the beginning of the generation 5 PDL cells were treated with syringaresinol dissolved in DMSO at a concentration of 50 or 100 μM every other day while inducing aging to 15 PDL cells. The cells of a negative control were treated with DMSO corresponding to 1/1000 of the volume of the culture medium. […] The isolated protein was quantitated using the BCA assay kit (Pierce, Rockford, USA) and 30 μg was subjected to western blotting using the iBlot Dry blotting system (Invitrogen, Carlsbad, Calif., USA). The SIRT1 protein expression level was measured using anti-SIRT1 antibody (Santa Cruz Biotechnology, Santa Cruz, Calif., USA).

[3] = system: Human adipocytes; test: Fatty acid oxidation promoting ability (3H2O in medium), adipocytes; assay type: cell-based; conditions: 50 μM, vs non-treated group, FIG. 11
Experimental: Human adipocytes, hepatocytes and myocytes were treated with 50 μM syringaresinol in substantially the same manner as in Test Example 3. The cells were washed with PBS and cultured for a day in a medium for fatty acid oxidation analysis. The medium was recovered and the amount of ^3H2O was measured.

## COc1cc(C2OCC3C(c4cc(OC)c(O)c(OC)c4)OCC23)cc(OC)c1O (stereo not shown) [syringaresinol]
[1]
  SIRT1 expression: increased SIRT1 expression in gingival fibroblasts, which had been decreased due to smoking, in a concentration-dependent manner
[2]; 100 μM every other day
  SIRT1 protein expression: increased SIRT1 expression to a level comparable to that of young retinal epithelial cells
[2]; 50 or 100 μM every other day
  SIRT1 protein expression: increased SIRT1 expression, which had been decreased in aged retinal cells, in a concentration-dependent manner
[3]
  fatty acid oxidation: increased fatty acid oxidation

Reference: US9999611B2, “SIRT 1 activator including syringaresinol” (AMOREPACIFIC CORPORATION, priority 2011, dated 2018)
